Results reported in patent US4980349A, “Sulphonamides derived from diarylmethanes, the processes for preparing them and pharmaceutical compositions containing them” (SANOFI, priority 1986, dated 1990).
Like-named read-outs stand apart in the source and are kept apart here.

Legend:
[1] = test system: rat hind foot kaolin-induced oedema; assay: Kaolin-induced arthritis test, first experiment (decrease in inflammation, foot volume); type: in vivo; details: 1 h before kaolin, Table IX, read-out: percentage decrease in the inflammation; for change in vivo at 25 mg/kg: 25 mg/kg oral; for change in vivo at 50 mg/kg: 50 mg/kg oral; for change in vivo at 100 mg/kg: 100 mg/kg oral
Description: The […] of 0.05 ml of a sterile 10% strength suspension of kaolin into the metatarsal flexor sheath of the hind foot of a rat initially induces an oedematous reaction. An inflammatory arthritis then forms.
The early oedematous reaction appears from the first hour, and reaches its maximum between the fourth hour and the sixth hour. This is the manifestation of interest. The assessment of the volume of the foot enables the action of substances on the oedematous reaction to be studied. The measurements are carried out using a Giono and Chevilard plethysmometer.
The test products are administered orally (stomach tube) one hour before the injection of the kaolin.
The results are expressed as a percentage decrease in the inflammation in the treated animals compared with a control series of animals.
The batches are of 10 animals per dose and 10 control animals.
The figures shown represent the mean of 10 animals.

[2] = test system: rat hind foot carragheenin-induced oedema; assay: Carragheenin-induced oedema test; type: in vivo; details: 3 h, first experiment, Table X, read-out: percentage inhibition of the inflammation; for change in vivo at 25 mg/kg: 25 mg/kg oral; for change in vivo at 50 mg/kg: 50 mg/kg oral; for change in vivo at 100 mg/kg: 100 mg/kg oral
Description: In this test, 10 rats are used per test compound of the invention. Control batches of 10 rats also receive either the comparative compound (ketoprofen) or exclusively an NaCl solution.
The compounds of the invention are administered orally (stomach tube) one hour before the injection of carragheenin.
The carragheenin is suspended at a concentration of 1% in a 0.9% isotonic sodium chloride solution. The volume injected into the rat's foot is 0.20 ml.
The volume of the foot is measured before the injection and 3 hours later. The antagonistic effect of the products towards carragheenin is reflected in the inhibition of the volume of the oedema compared with control rats. The latter receive only isotonic NaCl solution under identical conditions.

[3] = test system: pain threshold of brewer's yeast inflamed rat hind foot; assay: Randall and Sellitto's test (analgesic activity); type: in vivo; details: first experiment, Table XII, read-out: percentage increase in the mean pain threshold; for change in vivo at 25 mg/kg: 25 mg/kg oral; for change in vivo at 50 mg/kg: 50 mg/kg oral; for change in vivo at 100 mg/kg: 100 mg/kg oral
Description: Inflammation increases the sensitivity to pain, in particular to pressure, and analgesics raise the threshold of the sensitivity.
The inflammation is obtained by injecting 0.1 ml of a 20% strength aqueous suspension of brewer's yeast under the plantar aponeurosis of one of the hind feet. […] The pain threshold is assessed in terms of the force necessary and sufficient to initiate a characteristic reaction of withdrawing the foot.
The sensitivity to pain of the inflamed foot reaches a plateau 4 hours after the injection of the brewer's yeast, and then remains stable until the 6th hour. The pain threshold of the inflamed foot in control rats weighing 140 g is reached for pressures of 50 to 60 g, whereas it is around 160 g for the intact foot.
The action of the substance administered orally to series of 10 rats is expressed in terms of the percentage increase in the mean pain threshold, compared with that measured in the rats of a control series of 10 animals which have not received a compound of the invention.
The test products are administered orally (stomach tube) one hour before the injection of brewer's yeast.
The comparative compound used is ketoprofen.

[4] = test system: biosynthesis of leukotrienes B4 (LTB4), human polymorphonuclear leukocytes; assay: Biosynthesis of LTB4, isomers and oxidized metabolites in human polymorphonuclear leukocytes; type: cell-based; details: Leukocyte, first experiment
Description: Polymorphonuclear leukocytes are isolated from human blood and used during the 6 hours following the withdrawal. The viability of the cells is checked by trypan blue exclusion.
5×10^6 cells are incubated for 10 minutes at 37° C. in the presence of the test product dissolved in DMSO, and are stimulated with ionophore A 23187 (Galbiochem, 10 μM) in PBS buffer at pH 7.4, Ca^2+ and Mg^2+ =1 μM.
100 ng of prostaglandin B2 (PGB2), dissolved in methanol, are added at the end of the reaction to act as an internal standard.
On centrifugation, the culture supernatant is withdrawn. The latter is retrieved under argon and stored at -80° C. until analysed by HPLC.
This analysis is carried out by injecting 250 μl onto a 5 μm ODS ultrasphere column (Beckmann), with a gradient of acetonitrile (20-80%) in water, at pH 7.4.
The amounts of the different products which absorb at 269 nm, i.e. leukotrienes B4 (LTB4), isomers of LTB4 and oxidized metabolites of LTB4, are estimated by comparison with the internal standard.
The test product is used at a concentration of 40 μM.
They are expressed either as a percentage inhibition, or as a percentage increase in the production of LTB4, isomers of LTB4 and oxidized metabolites of LTB4 (designated by +).
The experimental model is the same as that described in Section 2.1. Other products are tested by comparison with the compound of the invention no. 1574, used as a control.

SMILES	change in vivo at 25 mg/kg [1] [%]	change in vivo at 50 mg/kg [1] [%]	change in vivo at 100 mg/kg [1] [%]	change in vivo at 25 mg/kg [2] [%]	change in vivo at 50 mg/kg [2] [%]	change in vivo at 100 mg/kg [2] [%]	change in vivo at 25 mg/kg [3] [%]	change in vivo at 50 mg/kg [3] [%]	change in vivo at 100 mg/kg [3] [%]	inhibition at 40 µM ([4]; read-out: Isomers of LTB4: percentage inhibition (+ : percentage increase in the production)) [%]	inhibition at 40 µM ([4]; read-out: LTB4: percentage inhibition (+ : percentage increase in the production)) [%]	inhibition at 40 µM ([4]; read-out: Oxidized metabolites of LTB4: percentage inhibition (+ : percentage increase in the production)) [%]
O=C(c1ccccc1)c1ccccc1S(=O)(=O)NCCCN1CCOCC1 [Compound 1340]	-10	-25	-45	-5	-5	-10	10	20	49	–	–	–
O=C(c1ccccc1)c1cc(Cl)ccc1S(=O)(=O)NCCN1CCOCC1 [Compound 1343]	–	–	–	-7	-8	-8	10	12	12	–	–	–
O=C(c1ccccc1)c1cc(Cl)ccc1S(=O)(=O)NCCCN1CCOCC1 [Compound 1344, 2-benzoyl-4-chloro-N-(3-morpholinopropyl)benzenesulphonamide]	-10	-15	-18	–	–	–	18	18	25	–	–	–
O=C(O)CNS(=O)(=O)c1ccc(Cl)cc1C(=O)c1ccccc1 [Compound 1565]	-15	-20	-45	-18	-22	-49	18	28	42	–	–	–
O=C(O)CCCNS(=O)(=O)c1ccc(Cl)cc1C(=O)c1ccccc1 [Compound 1567]	-12	-15	-20	-8	-10	-10	12	15	20	–	–	–
O=C(O)CCCCCNS(=O)(=O)c1ccc([N+](=O)[O-])cc1C(=O)c1ccccc1 [Compound 1568]	-15	-18	-40	-15	-20	-35	18	25	48	–	–	–
O=C(O)CCCCCNS(=O)(=O)c1ccc(Cl)cc1C(=O)c1ccccc1 [Compound 1569]	-28	-30	-45	-30	-35	-50	10	15	25	–	–	–
O=C(O)CCCCCCCCCCNS(=O)(=O)c1ccc([N+](=O)[O-])cc1C(=O)c1ccccc1 [Compound 1571]	-17	-26	-50	-23	-27	-48	25	32	36	53	60	70
O=C(O)CNS(=O)(=O)c1ccc(Cl)cc1C(=O)c1ccccc1Cl [Compound 1575]	-18	-21	-37	-15	-18	-35	15	19	35	–	–	–
